According to patent publication US11466012B2, “Tetrahydroisoquinoline compounds” (ALLINKY BIOPHARMA, priority 2018, dated 2022):

Experiments:
[1] = test system: A549 lung carcinoma cell line bearing KRas^G12S oncogenic mutation; assay: Cell proliferation inhibition (MTS), A549; assay type: cell-based; conditions: Homo sapiens
Experimental: (§1) • Cell line #1: A549. Lung carcinoma cell line bearing KRas^G12S oncogenic mutation • Cell line #2: H358. non-small cell lung cancer line bearing KRas^G12C oncogenic mutation • Cell line #3: PANC-1. epithelioid carcinoma of the pancreas cell line bearing KRas^G12D oncogenic mutation • Cell line #4: RPMI. myeloma cell line bearing KRas^G12A oncogenic mutation
(§2) Cell lines were cultured in DMEM or RPMI-1640 supplemented with FBS 10%. In order to assess the antiproliferative effect of compounds, cells were seeded at a density of 1.8×10^3, 6.2×10^3, 7.8×10^3, 21×10^3 and 2×10^3 cells/cm^2, respectively, in tissue culture microplates and were incubated in humidified atmosphere at 5% CO2. 24 h later, compounds dissolved in DMSO 100% were added for different final concentrations ranging between 0.1 and 50 μM for a final DMSO concentration of 0.5% and the plates were incubated for another 72 h. After incubation, proliferation was quantified using CellTiter 96® Aqueous Non-Radioactive Cell Proliferation Assay-MTS (Promega #G5421) following manufacturer instructions. Amount of 490 nm absorbance is directly proportional to the number of living cells. Absorbance was recorded with a BMG Fluostar Optima Microplate Reader and normalized to control with vehicle.

[2] = test system: RPMI-8226 myeloma cell line bearing KRas^G12A oncogenic mutation; assay: Cell proliferation inhibition (MTS), RPMI-8226; assay type: cell-based; conditions: Homo sapiens
Experimental: as §1, §2

[3] = test system: H358 non-small cell lung cancer line bearing KRas^G12C oncogenic mutation; assay: Cell proliferation inhibition (MTS), H358; assay type: cell-based; conditions: Homo sapiens, NCI-H358
Experimental: as §1, §2

[4] = test system: PANC-1 epithelioid carcinoma of the pancreas cell line bearing KRas^G12D oncogenic mutation; assay: Cell proliferation inhibition (MTS), PANC-1; assay type: cell-based; conditions: Homo sapiens
Experimental: as §1, §2

NIH-H358 cell line = assay: 3D CellTiter-Glo cell viability assay; assay type: cell-based; conditions: 168 h, 7 days' compound treatment, 0.65% methylcellulose
Experimental: The protocol to perform 3D CellTiter-Glo™ cell viability assay is as follows:
Day −1: Cell Plating • Adjust cell concentrations to 1×10^5 cells/ml with respective medium. (Cell concentration is adjusted according to data base or density optimization assay). Mix 3.5 mL of cell suspension 6.5 mL of 1% methylcellulose. Mix and wait for bubbles to disperse before pipetting. This step yields 10 ml of cell suspension in 0.65% methylcellulose solution. Add 99.5 μL cell suspensions to 96-well plates according to plate map with final cell density. • Two duplicate plates will be set up. One is for day 0 reading (T0) and the other will be cultured in incubator for reading at the end point. • Incubate the plates overnight in humidified incubator at 37° C. with 5% CO2.
Day 0: T0 plate reading and compound treatment • Take T0 plate, add 0.5 μL culture medium to each well for T0 reading. • Add 100 μl CellTiter-Glo® Reagent to each well. • Mix contents for 2 minutes on an orbital shaker to facilitate cell lysis. • Allow the plate to incubate at room temperature for 10 minutes to stabilize luminescent signal. • Record luminescence using EnVision Multi Label Reader. • Dilute the test articles at the concentration indicated at Test Articles Dilution. Add 0.5 μL of each 200× compound working solutions according to plate inoculation map.
Day 7: Plate reading of 7 days' compound treatment • Add 100 μL CellTiter-Glo® Reagent to each well. • Mix contents for 2 minutes on an orbital shaker to facilitate cell lysis. • Allow the plate to incubate at room temperature for 10 minutes to stabilize luminescent signal. • Record luminescence using EnVision Multi Label Reader.

[5] = test system: NCI-H358 human lung cancer xenograft; assay: Subcutaneous NCI-H358 human lung cancer xenograft model in NOD/SCID mice; assay type: in vivo; conditions: for Mean tumor volume: PG-D22 (Day 22 after first dosing), Compound 18 10 mg/kg Bid x 22 day, cisplatin 3.5 mg/kg BIW x 3.5 week, vehicle 630 mm^3; for Mean tumor volume / Tumor growth inhibition (TGI) / Number of mice (of 6) whose body weight loss (BWL) reached 10%: i.p.; for Tumor growth inhibition (TGI) / Anti-tumor effect compared with vehicle group: PG-D22; for Tumor growth inhibition (TGI): TGI=100x(1-T/C), Compound 18 10 mg/kg Bid; for Tumor growth inhibition (TGI) / Number of mice (of 6) whose body weight loss (BWL) reached 10%: cisplatin 3.5 mg/kg BIW; for Anti-tumor effect compared with vehicle group: group-2 p=0.026, group-3 p=0.019; for Number of mice (of 6) whose body weight loss (BWL) reached 10%: tumor bearing mice, compound 18 10 mg/kg Bid; for Tolerability / safety in tumor bearing mice: 10 mg/kg b.i.d. i.p.
From the text: Evaluation of the Efficacy of compound 18 in the Treatment of Subcutaneous NCI-H358 Human Lung Cancer Xenograft Model in NOD/SCID Mice
The treatments were started when the mean tumor size reached 141 mm^3. The test article administration and the animal numbers in each study group are shown in the following experimental design table.
Tumor growth inhibition (TGI): TGI (%) is an indication of antitumor effectiveness, and expressed as: TGI (%)=100×(1−T/C). T and C were the mean tumor volume of the treated and control groups, respectively, on a given day.

KRas = KRas (Homo sapiens, UniProt P01116); assay: Equilibrium dissociation constant by surface plasmon resonance; assay type: binding; conditions: SPRi, immobilised KRas, 4° C.
Experimental: Various concentrations of KRas dissolved in water were manually printed onto bare gold-coated (thickness 47 nm) PlexArray Nanocapture Sensor Chips (Plexera Bioscience, Seattle, Wash., US) at 40% humidity. Each concentration was printed in replicate, and each spot contained 0.2 μL of KRas solution. The chip was incubated in 80% humidity at 4° C. for overnight, and rinsed with 10×PBST for 10 min, 1×PBST for 10 min, and deionized water twice for 10 min. The chip was then blocked with 5% (w/v) non-fat milk in water overnight, and washed with 10×PBST for 10 min, 1×PBST for 10 min, and deionized water twice for 10 min before being dried under a stream of nitrogen prior to use. SPRi measurements
were performed with PlexAray HT (Plexera Bioscience, Seattle, Wash., US). Collimated light (660 nm) passes through the coupling prism, reflects off the SPR-active gold surface, and is received by the CCD camera. Buffers and samples were injected by a non-pulsatile piston pump into the 30 μL flowcell that was mounted on the coupling prim. […] The signal changes after binding and washing (in AU) are recorded as the assay value. Selected protein-grafted regions in the SPR images were analyzed, and the average reflectivity variations of the chosen areas were plotted as a function of time. Real-time binding signals were recorded and analyzed by Data Analysis Module (DAM, Plexera Bioscience, Seattle, Wash., US). […]

[6] = 72 h incubation, MTS, compounds 1-53, median from experimental results
[7] = compounds 54-63, based on estimations and/or preliminary experimental results

KRas, sequence (P01116 1-188 isoform P01116-2): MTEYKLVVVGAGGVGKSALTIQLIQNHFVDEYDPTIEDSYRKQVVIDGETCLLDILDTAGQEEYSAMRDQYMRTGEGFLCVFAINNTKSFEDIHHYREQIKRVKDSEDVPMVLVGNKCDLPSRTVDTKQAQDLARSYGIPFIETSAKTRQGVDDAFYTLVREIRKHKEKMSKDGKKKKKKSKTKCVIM

| Compound | IC50 [1, 6] | IC50 [2, 6] | IC50 [3, 6] | IC50 [4, 6] | IC50 (NIH-H358 cell line) | other results |
| --- | --- | --- | --- | --- | --- | --- |
| CCNC(=O)N1CCc2cc(OC)c(OCCc3cccnc3)cc2C1c1ccc(C)cc1C (centres unmarked) [Compound 46] | 0.6 µM | 0.5 µM | 0.7 µM | 0.7 µM | 0.842 µM |  |
| N.N.[Cl][Pt][Cl] [Cisplatin, reference compound] |  |  |  |  |  | Mean tumor volume [5]: 231 mm^3; Tumor growth inhibition (TGI) [5]: about 63%; Anti-tumor effect compared with vehicle group [5]: significant anti-tumor effects; Number of mice (of 6) whose body weight loss (BWL) reached 10% [5]: 4 |
| CCNC(=O)N1CCc2cc(OC)c(OCCc3cccc(O)c3)cc2C1c1ccc(C)cc1C (centres unmarked) [Compound 17] | 3.52 µM | 1.74 µM | 3.1 µM | 1.83 µM | 0.62 µM |  |
| COc1cc2c(cc1OCCc1cccc(O)c1)C(c1ccc(C)cc1C)N(C(=O)NCc1cocn1)CC2 (centres unmarked) [Compound 18, 1-(2,4-dimethylphenyl)-7-(3-hydroxyphenethoxy)-6-methoxy-N-(oxazol-4-ylmethyl)-3,4-dihydroisoquinoline-2(1H)-carboxamide] | 1.97 µM | 1.21 µM | 1.66 µM | 1.59 µM | 0.37 µM | Tolerability / safety in tumor bearing mice [5]: tolerate; Tolerability / safety in tumor bearing mice ([5]; listed as compound 18): safe; Mean tumor volume [5]: 238 mm^3; Tumor growth inhibition (TGI) [5]: about 62%; Anti-tumor effect compared with vehicle group [5]: significant anti-tumor effects; Anti-tumor effect compared with vehicle group ([5]; listed as compound 18): significant anti-tumor activities; Number of mice (of 6) whose body weight loss (BWL) reached 10% [5]: one; Kd (KRas): 0.0088 µM; koff (KRas; read-out: Kd (dissociation rate constant)): 0.00103 s⁻¹ |
| CCNC(=O)N1CCc2cc(OC)c(OCCc3cccc(N)c3)cc2C1c1ccc(C)cc1C (centres unmarked) [Compound 50] | 0.8 µM | 0.8 µM | 0.8 µM | 0.5 µM | 0.373 µM |  |
| CCNC(=O)N1CCc2cc(OC)c(OCCc3cnccn3)cc2C1c1ccc(C)cc1C (centres unmarked) [Compound 51] | 0.5 µM | 0.6 µM | 0.6 µM | 0.5 µM | 0.334 µM |  |
| COc1cc2c(cc1OCCc1cccnc1)C(c1ccc(C)cc1C)N(C(=O)NCc1cocn1)CC2 (centres unmarked) [Compound 23] | 0.55 µM | 0.62 µM | 0.59 µM | 0.49 µM | 0.39 µM |  |
| COc1cc2c(cc1OCCc1cccc(O)c1)C(c1c(O)cc(C)cc1Cl)N(CCC(C)=O)CC2 (centres unmarked) [Compound 5] | 4.82 µM | 1.51 µM | > 20 µM | > 30 µM |  |  |
| Cc1ccc(C2c3cc(OCCc4cccnc4)c(CO)cc3CCN2C(=O)NCc2cocn2)c(C)c1 (centres unmarked) [Compound 41] | 1.27 µM | 1.38 µM | 1.14 µM | 2.11 µM |  |  |
| COc1ccc(C2c3cc(OCCc4cccc(O)c4)c(OC)cc3CCN2CCC(C)=O)c(C)c1 (centres unmarked) [Compound 11] | 18 µM | 1.47 µM | 8.52 µM | 12.3 µM |  |  |
| Cc1ccc(C2c3cc(OCCc4cccc(F)c4)c(O)cc3CCN2C(=O)NCc2cocn2)c(C)c1 (centres unmarked) [Compound 26] | 2.02 µM | 0.79 µM | 1.01 µM | 1.15 µM | 9.35 µM |  |
| Cc1ccc(C2c3cc(OCCc4cccc(O)c4)c(C(N)=O)cc3CCN2C(=O)NCc2cocn2)c(C)c1 (centres unmarked) [Compound 24] | 0.74 µM | 0.87 µM | 0.84 µM | 0.66 µM |  |  |
| Cc1ccc(C2c3cc(OCCc4cccnc4)c(C)cc3CCN2C(=O)NCc2cocn2)c(C)c1 (centres unmarked) [Compound 42] | 0.49 µM | 0.32 µM | 1.21 µM | 0.62 µM | 10.1 µM |  |
| COc1cc2c(cc1OCCc1nccnc1C)C(c1ccc(C)cc1C)N(C(=O)NCc1cocn1)CC2 (centres unmarked) [Compound 59] |  |  |  |  |  | IC50 [1, 7]: 0.6 µM; IC50 [2, 7]: 0.5 µM; IC50 [3, 7]: 0.7 µM; IC50 [4, 7]: 7 µM |
| COc1cncc(CCOc2cc3c(cc2OC)CCN(C(=O)NCc2cocn2)C3c2ccc(C)cc2C)n1 (centres unmarked) [Compound 54] |  |  |  |  |  | IC50 [1, 7]: 0.6 µM; IC50 [2, 7]: 0.5 µM; IC50 [3, 7]: 0.7 µM; IC50 [4, 7]: 0.7 µM |
| Cc1ccc(C2c3cc(OCCc4cccnc4)c(Cl)cc3CCN2C(=O)NCc2cocn2)c(C)c1 (centres unmarked) [Compound 38] | 0.43 µM | 0.22 µM | 1.09 µM | 0.42 µM |  |  |
| COc1cnc(CCOc2cc3c(cc2OC)CCN(C(=O)NCc2cocn2)C3c2ccc(C)cc2C)cn1 (centres unmarked) [Compound 63] |  |  |  |  |  | IC50 [1, 7]: 0.6 µM; IC50 [2, 7]: 0.5 µM; IC50 [3, 7]: 0.7 µM; IC50 [4, 7]: 0.7 µM |
| COc1cc2c(cc1OCCc1cncc(C)n1)C(c1ccc(C)cc1C)N(C(=O)NCc1cocn1)CC2 (centres unmarked) [Compound 61] |  |  |  |  |  | IC50 [1, 7]: 0.6 µM; IC50 [2, 7]: 0.5 µM; IC50 [3, 7]: 0.7 µM; IC50 [4, 7]: 0.7 µM |
